Data published in a compilation of properties of binary mixtures (doi:10.1016/j.molliq.2021.116463).

Experiment: xn = mol fraction of the nth substance listed
Conditions: 100 kPa

`[Cl-].c1c[nH+]c[nH]1` + OCC(O)CO showed a viscosity (293.2 K, x1 = 0.1667) of 565 mPa·s, a viscosity (293.2 K, x1 = 0.25) of 429 mPa·s and a viscosity (293.2 K, x1 = 0.3333) of 321 mPa·s. It also gave a viscosity (293.2 K, x1 = 0.5) of 472 mPa·s, a viscosity (303.2 K, x1 = 0.1667) of 397 mPa·s and a viscosity (303.2 K, x1 = 0.25) of 294 mPa·s. It also gave a viscosity (303.2 K, x1 = 0.3333) of 219 mPa·s, a viscosity (303.2 K, x1 = 0.5) of 355 mPa·s and a viscosity (313.2 K, x1 = 0.25) of 207 mPa·s. For the same compound, the viscosity (313.2 K, x1 = 0.5) was 285 mPa·s, the viscosity (323.2 K, x1 = 0.1667) was 196 mPa·s and the viscosity (323.2 K, x1 = 0.5) was 141.2 mPa·s. The viscosity (333.2 K, x1 = 0.1667) was 149.3 mPa·s, the viscosity (333.2 K, x1 = 0.25) was 60.9 mPa·s and the viscosity (333.2 K, x1 = 0.3333) was 49.6 mPa·s. For the same compound, the viscosity (343.2 K, x1 = 0.1667) was 127.7 mPa·s, the viscosity (343.2 K, x1 = 0.25) was 37.7 mPa·s and the viscosity (343.2 K, x1 = 0.3333) was 31.2 mPa·s. It also gave a viscosity (353.2 K, x1 = 0.1667) of 116.4 mPa·s, a viscosity (353.2 K, x1 = 0.25) of 24.8 mPa·s and a viscosity (353.2 K, x1 = 0.3333) of 20.6 mPa·s. It also gave a viscosity (353.2 K, x1 = 0.5) of 38.2 mPa·s.
